Data: patent US20080031982A1 (Metaproteomics, LLC, priority 2006, published 2008)

Assays:
Assay in all cases: KinaseProfiler Assay
CDK1/cyclinB = CDK1/cyclinB (Homo sapiens, UniProt P06493)
CDK2/cyclinA = CDK2/cyclinA (Homo sapiens, UniProt P24941)
IGF-1R = IGF-1R (Homo sapiens, UniProt P08069)
MAPK1 = MAPK1 (Homo sapiens, UniProt P27361)
p70S6K = p70S6K (Homo sapiens, UniProt P23443)
Pim-2 = Pim-2 (Homo sapiens, UniProt Q9P1W9)
PKBα = PKBα (Homo sapiens, UniProt P31749)
PKCβII = PKCβII (Homo sapiens, UniProt P05771)
TBK1 = biological target: T1, TBK1 (Homo sapiens, UniProt Q9UHD2)
T1 sequence (Q9UHD2 1-729): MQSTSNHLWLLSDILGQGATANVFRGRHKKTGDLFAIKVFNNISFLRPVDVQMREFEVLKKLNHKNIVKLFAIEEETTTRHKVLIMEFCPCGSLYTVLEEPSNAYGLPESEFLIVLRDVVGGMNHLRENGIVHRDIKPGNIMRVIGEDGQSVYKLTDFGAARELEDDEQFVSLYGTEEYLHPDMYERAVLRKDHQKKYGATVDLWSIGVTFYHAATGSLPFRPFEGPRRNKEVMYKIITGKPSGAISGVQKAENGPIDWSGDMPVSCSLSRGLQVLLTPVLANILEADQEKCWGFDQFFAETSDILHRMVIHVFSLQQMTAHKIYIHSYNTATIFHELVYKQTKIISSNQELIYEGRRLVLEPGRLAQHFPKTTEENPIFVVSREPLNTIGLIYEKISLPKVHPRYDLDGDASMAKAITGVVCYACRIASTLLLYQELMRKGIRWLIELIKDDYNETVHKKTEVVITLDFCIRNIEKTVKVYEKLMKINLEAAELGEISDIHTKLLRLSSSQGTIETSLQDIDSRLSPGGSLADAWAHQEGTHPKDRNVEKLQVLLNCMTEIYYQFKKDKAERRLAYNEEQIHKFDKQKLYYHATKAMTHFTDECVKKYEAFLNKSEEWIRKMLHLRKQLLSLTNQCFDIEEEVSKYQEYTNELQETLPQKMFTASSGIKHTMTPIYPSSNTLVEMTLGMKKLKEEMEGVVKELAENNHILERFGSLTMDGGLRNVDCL

TrkB = TrkB (Homo sapiens, UniProt Q16620)
PAK5 = PAK5 (Homo sapiens, UniProt Q9P286)
PAK5, sequence (Q9P286 whole entry): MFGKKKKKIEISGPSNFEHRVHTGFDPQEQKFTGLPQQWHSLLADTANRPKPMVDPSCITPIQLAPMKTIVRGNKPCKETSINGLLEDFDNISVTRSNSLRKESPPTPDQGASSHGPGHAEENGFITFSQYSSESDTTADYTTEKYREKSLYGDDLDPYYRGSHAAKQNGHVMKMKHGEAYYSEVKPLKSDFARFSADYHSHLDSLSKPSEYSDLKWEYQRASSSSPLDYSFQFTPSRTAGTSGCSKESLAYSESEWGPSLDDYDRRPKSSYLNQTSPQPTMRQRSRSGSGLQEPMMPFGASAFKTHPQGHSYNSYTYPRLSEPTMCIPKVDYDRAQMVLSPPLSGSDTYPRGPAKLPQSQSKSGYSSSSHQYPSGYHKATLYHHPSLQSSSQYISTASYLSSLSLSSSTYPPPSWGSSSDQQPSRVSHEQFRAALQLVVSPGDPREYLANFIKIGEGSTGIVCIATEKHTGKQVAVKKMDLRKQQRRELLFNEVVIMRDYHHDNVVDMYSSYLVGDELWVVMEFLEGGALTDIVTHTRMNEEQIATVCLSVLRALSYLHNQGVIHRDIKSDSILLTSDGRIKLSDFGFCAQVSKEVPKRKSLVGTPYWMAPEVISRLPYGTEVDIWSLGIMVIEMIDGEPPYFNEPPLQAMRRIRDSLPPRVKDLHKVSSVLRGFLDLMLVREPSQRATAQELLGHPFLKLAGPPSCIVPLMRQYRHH

PKBα, sequence (P31749 whole entry): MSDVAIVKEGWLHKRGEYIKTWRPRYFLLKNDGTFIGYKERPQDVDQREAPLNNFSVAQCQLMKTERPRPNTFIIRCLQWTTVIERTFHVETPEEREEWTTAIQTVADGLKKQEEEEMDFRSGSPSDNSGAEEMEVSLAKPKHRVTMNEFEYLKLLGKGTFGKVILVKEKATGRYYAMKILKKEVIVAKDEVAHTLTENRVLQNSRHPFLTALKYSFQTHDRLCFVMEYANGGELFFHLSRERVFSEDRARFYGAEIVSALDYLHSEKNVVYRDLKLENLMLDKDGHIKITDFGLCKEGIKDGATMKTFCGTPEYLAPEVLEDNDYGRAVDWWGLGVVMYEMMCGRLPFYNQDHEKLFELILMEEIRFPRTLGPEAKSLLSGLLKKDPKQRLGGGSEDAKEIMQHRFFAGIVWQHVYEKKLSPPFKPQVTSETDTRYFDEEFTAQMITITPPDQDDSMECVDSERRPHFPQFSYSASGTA
TrkB, sequence (Q16620 32-822): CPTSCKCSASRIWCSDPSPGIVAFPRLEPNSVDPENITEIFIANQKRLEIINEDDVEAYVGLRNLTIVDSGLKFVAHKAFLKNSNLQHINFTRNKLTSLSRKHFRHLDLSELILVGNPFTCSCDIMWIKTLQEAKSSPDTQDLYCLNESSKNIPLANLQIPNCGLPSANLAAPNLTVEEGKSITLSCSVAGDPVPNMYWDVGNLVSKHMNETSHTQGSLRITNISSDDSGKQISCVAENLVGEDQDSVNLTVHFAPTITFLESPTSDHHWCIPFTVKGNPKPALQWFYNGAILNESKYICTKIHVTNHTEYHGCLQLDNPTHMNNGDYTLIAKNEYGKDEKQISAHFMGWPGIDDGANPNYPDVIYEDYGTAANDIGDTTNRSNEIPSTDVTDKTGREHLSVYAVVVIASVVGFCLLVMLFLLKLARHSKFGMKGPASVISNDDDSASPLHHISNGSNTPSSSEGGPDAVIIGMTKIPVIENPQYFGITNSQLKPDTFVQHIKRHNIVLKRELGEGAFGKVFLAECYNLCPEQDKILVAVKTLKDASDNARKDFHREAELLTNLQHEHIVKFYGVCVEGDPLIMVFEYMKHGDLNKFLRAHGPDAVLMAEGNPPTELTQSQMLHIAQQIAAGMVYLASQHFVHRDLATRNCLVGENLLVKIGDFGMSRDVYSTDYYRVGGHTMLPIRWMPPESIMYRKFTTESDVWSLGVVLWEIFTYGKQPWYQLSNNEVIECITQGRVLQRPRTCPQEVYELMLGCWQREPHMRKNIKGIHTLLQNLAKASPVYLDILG
Pim-2, sequence (Q9P1W9 whole entry): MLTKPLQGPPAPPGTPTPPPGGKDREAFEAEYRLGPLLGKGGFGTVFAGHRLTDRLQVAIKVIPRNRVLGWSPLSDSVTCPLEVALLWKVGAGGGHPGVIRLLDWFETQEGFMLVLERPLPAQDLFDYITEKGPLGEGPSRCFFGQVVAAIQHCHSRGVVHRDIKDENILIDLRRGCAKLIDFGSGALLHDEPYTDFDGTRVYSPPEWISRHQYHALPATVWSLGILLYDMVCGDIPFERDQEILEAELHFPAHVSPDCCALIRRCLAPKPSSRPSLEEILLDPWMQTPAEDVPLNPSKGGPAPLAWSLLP
p70S6K, sequence (P23443 whole entry): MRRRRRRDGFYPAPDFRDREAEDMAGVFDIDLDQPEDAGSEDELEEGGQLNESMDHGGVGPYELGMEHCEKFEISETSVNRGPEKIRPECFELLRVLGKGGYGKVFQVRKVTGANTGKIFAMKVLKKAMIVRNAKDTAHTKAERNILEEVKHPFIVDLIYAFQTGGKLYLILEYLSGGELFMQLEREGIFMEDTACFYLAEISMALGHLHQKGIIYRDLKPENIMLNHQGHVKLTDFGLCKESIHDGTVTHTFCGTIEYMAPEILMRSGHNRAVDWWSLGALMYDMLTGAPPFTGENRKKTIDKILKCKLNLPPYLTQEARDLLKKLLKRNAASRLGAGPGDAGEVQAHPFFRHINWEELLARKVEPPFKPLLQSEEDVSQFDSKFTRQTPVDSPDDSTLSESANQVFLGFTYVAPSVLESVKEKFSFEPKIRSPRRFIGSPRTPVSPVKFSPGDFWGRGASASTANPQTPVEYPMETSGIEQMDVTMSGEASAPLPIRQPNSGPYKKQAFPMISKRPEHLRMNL
PKCβII, sequence (P05771 1-673 isoform P05771-2): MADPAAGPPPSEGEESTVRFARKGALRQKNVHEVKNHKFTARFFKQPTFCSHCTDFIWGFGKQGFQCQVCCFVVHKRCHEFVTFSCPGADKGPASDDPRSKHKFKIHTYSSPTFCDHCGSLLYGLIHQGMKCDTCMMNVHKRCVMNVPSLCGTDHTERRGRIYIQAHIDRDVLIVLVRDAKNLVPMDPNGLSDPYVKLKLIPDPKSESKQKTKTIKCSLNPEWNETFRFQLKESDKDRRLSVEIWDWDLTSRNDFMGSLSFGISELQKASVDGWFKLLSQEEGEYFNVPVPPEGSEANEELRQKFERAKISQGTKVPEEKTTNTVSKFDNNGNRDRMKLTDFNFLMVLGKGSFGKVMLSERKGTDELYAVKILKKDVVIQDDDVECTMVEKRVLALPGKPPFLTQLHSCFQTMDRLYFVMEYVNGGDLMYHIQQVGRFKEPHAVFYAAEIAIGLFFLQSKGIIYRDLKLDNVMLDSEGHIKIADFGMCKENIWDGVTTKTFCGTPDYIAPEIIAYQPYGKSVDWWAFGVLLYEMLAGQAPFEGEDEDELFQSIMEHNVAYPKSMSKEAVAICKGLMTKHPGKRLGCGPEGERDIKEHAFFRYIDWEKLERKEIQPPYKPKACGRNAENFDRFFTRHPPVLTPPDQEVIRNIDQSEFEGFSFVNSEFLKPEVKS
CDK1/cyclinB, sequence (P06493 whole entry): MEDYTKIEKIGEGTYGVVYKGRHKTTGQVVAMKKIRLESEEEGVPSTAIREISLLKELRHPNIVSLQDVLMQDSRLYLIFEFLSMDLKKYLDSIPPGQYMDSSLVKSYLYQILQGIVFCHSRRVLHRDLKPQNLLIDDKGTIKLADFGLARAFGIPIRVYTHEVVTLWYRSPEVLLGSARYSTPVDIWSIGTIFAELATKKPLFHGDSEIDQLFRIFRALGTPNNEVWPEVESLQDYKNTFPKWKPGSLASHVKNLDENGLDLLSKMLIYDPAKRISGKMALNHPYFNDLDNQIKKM
CDK1/cyclinB, sequence (P14635 whole entry partner): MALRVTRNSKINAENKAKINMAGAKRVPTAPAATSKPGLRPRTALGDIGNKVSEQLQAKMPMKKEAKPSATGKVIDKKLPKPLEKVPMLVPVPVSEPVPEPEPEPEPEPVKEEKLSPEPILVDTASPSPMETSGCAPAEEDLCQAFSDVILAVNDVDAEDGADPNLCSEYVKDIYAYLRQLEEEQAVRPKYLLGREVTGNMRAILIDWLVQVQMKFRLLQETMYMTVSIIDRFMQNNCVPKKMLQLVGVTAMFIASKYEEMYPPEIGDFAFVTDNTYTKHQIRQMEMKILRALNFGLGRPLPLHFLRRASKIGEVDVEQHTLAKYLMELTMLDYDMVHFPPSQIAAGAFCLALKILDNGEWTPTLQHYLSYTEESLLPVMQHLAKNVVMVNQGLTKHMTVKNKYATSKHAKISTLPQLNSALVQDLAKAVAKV
MAPK1, sequence (P27361 whole entry): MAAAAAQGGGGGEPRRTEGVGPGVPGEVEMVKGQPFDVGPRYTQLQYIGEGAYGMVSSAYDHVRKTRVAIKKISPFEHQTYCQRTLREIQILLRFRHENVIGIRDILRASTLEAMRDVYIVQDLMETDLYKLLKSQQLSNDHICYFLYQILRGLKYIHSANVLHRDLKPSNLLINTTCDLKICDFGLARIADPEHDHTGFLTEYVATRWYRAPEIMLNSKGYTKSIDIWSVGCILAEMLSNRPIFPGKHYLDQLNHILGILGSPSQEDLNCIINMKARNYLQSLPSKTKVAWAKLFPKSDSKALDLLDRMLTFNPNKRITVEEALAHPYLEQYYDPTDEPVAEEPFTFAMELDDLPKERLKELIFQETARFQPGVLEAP

## COc1cc(O)c(CC=C(C)C)c(O)c1C(=O)/C=C/c1ccc(O)cc1 [Xanthohumol, xanthohumol]
CDK1/cyclinB; 1 ug/ml
  Kinase activity, % of Control: 118 % of Control
CDK1/cyclinB; 5 ug/ml
  Kinase activity, % of Control: 103 % of Control
CDK1/cyclinB; 25 ug/ml
  Kinase activity, % of Control: 46 % of Control
CDK1/cyclinB; 50 ug/ml
  Kinase activity, % of Control: 18 % of Control
CDK2/cyclinA; 1 ug/ml
  Kinase activity, % of Control: 107 % of Control
CDK2/cyclinA; 5 ug/ml
  Kinase activity, % of Control: 96 % of Control
CDK2/cyclinA; 25 ug/ml
  Kinase activity, % of Control: 57 % of Control
CDK2/cyclinA; 50 ug/ml
  Kinase activity, % of Control: 6 % of Control
IGF-1R; 1 ug/ml
  Kinase activity, % of Control: 107 % of Control
IGF-1R; 25 ug/ml
  Kinase activity, % of Control: 129 % of Control
IGF-1R; 50 ug/ml
  Kinase activity, % of Control: 139 % of Control
MAPK1; 5 ug/ml
  Kinase activity, % of Control: 64 % of Control
MAPK1; 25 ug/ml
  Kinase activity, % of Control: 19 % of Control
MAPK1; 50 ug/ml
  Kinase activity, % of Control: 17 % of Control
p70S6K; 1 ug/ml
  Kinase activity, % of Control: 94 % of Control
p70S6K; 5 ug/ml
  Kinase activity, % of Control: 48 % of Control
p70S6K; 25 ug/ml
  Kinase activity, % of Control: 19 % of Control
p70S6K; 50 ug/ml
  Kinase activity, % of Control: 7 % of Control
Pim-2; 1 ug/ml
  Kinase activity, % of Control: 104 % of Control
Pim-2; 5 ug/ml
  Kinase activity, % of Control: 48 % of Control
Pim-2; 25 ug/ml
  Kinase activity, % of Control: 14 % of Control
Pim-2; 50 ug/ml
  Kinase activity, % of Control: 6 % of Control
PKBα; 1 ug/ml
  Kinase activity, % of Control: 102 % of Control
PKBα; 25 ug/ml
  Kinase activity, % of Control: 18 % of Control
PKBα; 50 ug/ml
  Kinase activity, % of Control: 5 % of Control
PKCβII; 1 ug/ml
  Kinase activity, % of Control: 108 % of Control
PKCβII; 5 ug/ml
  Kinase activity, % of Control: 108 % of Control
PKCβII; 25 ug/ml
  Kinase activity, % of Control: 71 % of Control
PKCβII; 50 ug/ml
  Kinase activity, % of Control: 79 % of Control
TBK1; 1 ug/ml
  Kinase activity, % of Control: 104 % of Control
TBK1; 5 ug/ml
  Kinase activity, % of Control: 71 % of Control
TBK1; 25 ug/ml
  Kinase activity, % of Control: 45 % of Control
TBK1; 50 ug/ml
  Kinase activity, % of Control: 42 % of Control
TrkB; 1 ug/ml
  Kinase activity, % of Control: 95 % of Control
TrkB; 5 ug/ml
  Kinase activity, % of Control: 89 % of Control
TrkB; 25 ug/ml
  Kinase activity, % of Control: 58 % of Control
TrkB; 50 ug/ml
  Kinase activity, % of Control: 3 % of Control
PAK5; 1 ug/ml
  Kinase activity, % of Control: 106 % of Control
PAK5; 5 ug/ml
  Kinase activity, % of Control: 99 % of Control
PAK5; 25 ug/ml
  Kinase activity, % of Control: 42 % of Control
PAK5; 50 ug/ml
  Kinase activity, % of Control: 5 % of Control
